{"source": "patent US20050100540A1", "about": "“Platelet-activating factor acetylhydrolase” (priority 1993, published 2005)", "molecules": {"B1": {"name": "sAH 406-3: Full length human plasma PAF-AH cDNA clone, product transiently expressed in COS 7 cells (protein)", "chain": "MVPPKLHVLFCLCGCLAVVYPFDWQYINPVAHMKSSAWVNKIQVLMAAASFGQTKIPRGNGPYSVGCTDLMFDHTNKGTFLRLYYPSQDNDRLDTLWIPNKEYFWGLSKFLGTHWLMGNILRLLFGSMTTPANWNSPLRPGEKYPLVVFSHGLGAFRTLYSAIGIDLASHGFIVAAVEHRDRSASATYYFKDQSAAEIGDKSWLYLRTLKQEEETHIRNEQVRQRAKECSQALSLILDIDHGKPVKNALDLKFDMEQLKDSIDREKIAVIGHSFGGATVIQTLSEDQRFRCGIALDAWMFPLGDEVYSRIPQPLFFINSEYFQYPANIIKMKKCYSPDKERKMITIRGSVHQNFADFTFATGKIIGHMLKLKGDIDSNVAIDLSNKASLAFLQKHLGLHKDFDQWDCLIEGDDENLIPGTNINTTNQHIMLQNSSGIEKYN"}}, "key": {"[1]": {"molecular_target": "recombinant PAF-AH encoded by clone sAH 406-3 (Homo sapiens, UniProt Q13093)", "assay_type": "biochemical"}, "recombinant PAF-AH": {"molecular_target": "T1, recombinant PAF-AH (Homo sapiens, UniProt Q13093)", "T1 construct": "441 amino acids; At the amino terminus, a relatively hydrophobic segment of 41 residues precedes the N-terminal amino acid (the isoleucine at position 42); made in house; host or cells: E. coli (constructs trp AH / pUC trp AH)", "T1 sequence (Q13093 42-441)": "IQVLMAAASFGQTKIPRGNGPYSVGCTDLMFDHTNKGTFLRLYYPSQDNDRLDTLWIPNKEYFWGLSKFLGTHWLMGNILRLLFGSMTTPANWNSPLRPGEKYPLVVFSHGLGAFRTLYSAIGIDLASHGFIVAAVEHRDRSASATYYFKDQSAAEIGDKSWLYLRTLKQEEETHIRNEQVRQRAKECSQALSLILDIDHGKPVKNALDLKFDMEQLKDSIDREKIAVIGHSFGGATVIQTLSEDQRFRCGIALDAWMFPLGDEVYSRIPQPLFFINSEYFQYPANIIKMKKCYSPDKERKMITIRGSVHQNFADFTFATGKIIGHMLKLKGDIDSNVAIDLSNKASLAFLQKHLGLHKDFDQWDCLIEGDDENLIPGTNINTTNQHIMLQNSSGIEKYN", "assay": "Inhibition of PAF hydrolysis in standard PAF hydrolysis assay", "assay_type": "biochemical", "details": "0 to 125 μM; highest concentration 5-fold greater than PAF", "procedure": "The most remarkable property of the PAF acetylhydrolase is its marked specificity for substrates with a short residue at the sn-2 position of the substrate. This strict specificity distinguishes PAF acetylhydrolase from other forms of PLA2. Thus, to determine if recombinant PAF-AH degrades phospholipids with long-chain fatty acids at the sn-2 position, hydrolysis of 1-palmitoyl-2-arachidonoyl-sn-glycero-3-phosphocholine (arachidonoylPC) was assayed since this is the preferred substrate for a well-characterized form of PLA2. […] In additional experiments, arachidonoylPC was included in a standard PAF hydrolysis assay at concentrations ranging from 0 to 125 μM to determine whether it inhibited the hydrolysis of PAF by recombinant PAF-AH. There was no inhibition of PAF hydrolysis even at the highest concentration of […], which was 5-fold greater than the concentration of PAF. […] Native plasma PAF-AH has several other properties that distinguish it from other phospholipases including calcium-independence and resistance to compounds that modify sulfhydryl groups or disrupt disulfides."}}, "data": [{"molecule": "O=C(O)CN(CCN(CC(=O)O)CC(=O)O)CC(=O)O", "note": "[EDTA, reference compound]", "values": [{"measurement": "Effect on PAF-AH activity of media from cells transfected with sAH 406-3", "setting": "[1]", "value": "unaffected"}]}, {"molecule": "CCCCC/C=C\\C/C=C\\C/C=C\\C/C=C\\CCCC(=O)O[C@H](COC(=O)CCCCCCCCCCCCCCC)COP(=O)([O-])OCC[N+](C)(C)C", "note": "[arachidonoylPC, 1-palmitoyl-2-arachidonoyl-sn-glycero-3-phosphocholine]", "values": [{"measurement": "Inhibition of hydrolysis of PAF by recombinant PAF-AH", "setting": "recombinant PAF-AH", "value": "no inhibition"}]}, {"molecule": "B1", "values": [{"measurement": "PAF-AH activity of transfected COS cell media relative to background", "setting": "[1]", "value": 4, "unit": "fold"}]}]}
